The values below come from ChEMBL document CHEMBL2429836, “Theoretical studies, synthesis, and biological activity of 1-[(4-methylphenyl)sulfonyl]-5-oxo-2,3,4,5-tetrahydro-1H-1-benzazepine-4-carbonitrile (C9) as a non-peptide antagonist of the arginine vasopressin V1a and V2 receptors” (Med Chem Res, 2013).

For assay [1], the target named is Vasopressin V1a receptor (Rattus norvegicus) (UniProt P30560). Put plainly: Antagonist activity at vasopressin V1a receptor in endothelium intact rat thoracic aorta assessed as inhibition of AVP-induced vascular smooth muscle contraction at 10 uM.
Chain of Vasopressin V1a receptor (Rattus norvegicus) (P30560 whole entry, looked up): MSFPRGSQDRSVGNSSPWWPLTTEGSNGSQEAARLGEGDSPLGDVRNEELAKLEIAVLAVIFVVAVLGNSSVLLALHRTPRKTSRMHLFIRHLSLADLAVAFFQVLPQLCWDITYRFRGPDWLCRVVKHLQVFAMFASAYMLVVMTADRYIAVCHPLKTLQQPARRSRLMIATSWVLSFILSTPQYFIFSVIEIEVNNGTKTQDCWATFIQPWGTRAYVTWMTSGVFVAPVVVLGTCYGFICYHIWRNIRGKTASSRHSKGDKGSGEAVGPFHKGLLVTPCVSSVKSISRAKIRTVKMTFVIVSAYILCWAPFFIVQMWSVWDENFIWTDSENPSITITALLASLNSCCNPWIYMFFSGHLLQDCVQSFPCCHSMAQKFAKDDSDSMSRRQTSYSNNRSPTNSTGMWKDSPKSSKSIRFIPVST
Assay [2] has the same target. Put plainly: Antagonist activity at vasopressin V1a receptor in endothelium-denuded rat thoracic aorta assessed as inhibition of AVP-induced vascular smooth muscle contraction at 10 uM.
For assay [3] the target is unchanged. Put plainly: Antagonist activity at vasopressin V1a receptor in rat thoracic aorta assessed as inhibition of AVP-induced vascular smooth muscle contraction at 5.9 uM. It is filed as tissue-based.
In assay [4] the test system is Rattus norvegicus. Put plainly: Antidiuretic acitivity in water-loaded Wistar rat assessed as inhibition of AVP-mediated decrease in urine flow at 100 ug/kg, iv. The class given is functional, organism-based.
Assay [5] addresses Vasopressin V1a receptor (Rattus norvegicus) (UniProt P30560). As to the kind of experiment: Antagonist activity at vasopressin V1a receptor in rat thoracic aorta assessed as inhibition of AVP-induced vascular smooth muscle contraction at 590 uM. It is filed as tissue-based.
Assay [6] has the same target. Put plainly: Antagonist activity at vasopressin V1a receptor in rat thoracic aorta assessed as inhibition of AVP-induced vascular smooth muscle contraction at 59 uM. The class given is tissue-based.
Assay [7] shares this target. As to the kind of experiment: Antagonist activity at vasopressin V1a receptor in rat thoracic aorta assessed as inhibition of AVP-induced vascular smooth muscle contraction. It is filed as tissue-based.

Active and inactive are the calls of the source. The rule behind the calls is not given here. Numbered stars: 1 amine (or outer) side, 2 acyl side, 3 side chain; on linkers, the order of the positions; unused ones are H or OH. Bridge positions count the residues as written; N and C are the ends. Peptide text beside a SMILES is read from it. X1 = CC(C)(CC(=O)[*:1])S[*:2]

What is called inhibition is the relative decrease from the control value, in per cent. For the compound `COc1ccc(C[C@@H]2NC(=O)CC(C)(C)SSC[C@@H](C(=O)N3CCC[C@H]3C(=O)N[C@@H](CCCN=C(N)N)C(=O)NCC(N)=O)NC(=O)[C@H](CC(N)=O)NC(=O)[C@H](CCC(N)=O)NC(=O)[C@H](Cc3ccccc3)NC2=O)cc1` (Y(Me)FQNCPRG-NH2; linker N-5 via X1), the inhibition entry in assay [1] and in assay [2] was “Active” throughout.
As for `Cc1ccc(S(=O)(=O)N2CCC(C#N)C(=O)c3ccccc32)cc1` (configuration not stated), the figures for the inhibition in assay [3], in assay [6] and in assay [7] were 25%, 70% and “Dose-dependent effect”, respectively. Also, the inhibition entry in assay [4] and in assay [5] was “Active” in each case.
